In patent US20120238487A1, “POLYMER COMPOSITION USEFUL AS A PHARMACEUTICAL CARRIER” (ROBERT GORDON UNIVERSITY, priority 2009, published 2012):
Converted amounts (≈) assume the structure as drawn. Read-outs that look alike come from different tables or passages of the source.

What was measured:
[1] = type: physicochemical
Method: Polymer solutions of 1 […] 6 mgmL^-1 were made up in deionised water and probe sonicated for 10 mins to ensure homogeneity. […] A reverse phase Phenomenex C18 250 mm×46 mm×5 μm HPLC column was used with flow rate of 1 mlmin^-1 of the mobile phase (45:55 acetonitrile:45 mM potassium dihydrogen phosphate made up in water and pH adjusted to pH3 with orthophosphoric acid) in an isocratic mode.

[2] = type: physicochemical; remark: listed apart in the source
Method: (§1) Polymer solutions of 1 mgmL^−1, 3 mgmL^−1 and 6 mgmL^−1 were made up in deionised water and probe sonicated for 10 mins to ensure homogeneity. The hydrophobic drug was added in 1:1, 5:1 and 10:1 drug:excipient ratios and the drug-polymer solutions were probe sonicated for a further 10 mins to ensure maximum encapsulation was achieved. After cooling to room temperature, the solutions were filtered using 0.45 μm GDX PVDF syringe filters to ensure any excess unencapsulated propofol was removed.
A reverse phase Zorbax ODS 250 mm×46 mm×5 […] HPLC column was used with flow rate of 1 mlmin^−1 of the mobile phase (40:3:57 methanol:acetonitrile:water) in an isocratic mode. […] The samples were diluted with mobile phase and 20 μl was injected onto the column, the resultant peak at 20 mins was analysed. The drug content was determined by comparing to a calibration carried out on etoposide dissolved in methanol (31.3-500 μgmL^−1).

[3] = Aqueous solubility of model hydrophobic drugs; type: physicochemical
HEK 293 cells = test: MTT assay on HEK 293 cells; type: cell-based, Human; settings: for IC50: Homo sapiens
Method: The safety profile of various drugs and nano-aggregates of the drugs and polymers were investigated using the standard colorimetric MTT (3-(4,5-Dimethylthiazol-2-yl)-2,5-diphenyltetrazolium bromide) assay.
An MTT assay was carried out using Caco-2 and HEK cells. Caco-2 cells were cultured as previously described. HEK cells were cultured in Dulbecco's minimum essential medium (DMEM) containing 10% FBS and 1% penicillin streptomycin (Penstrep).
Polymeric self-assemblies were formed by probe sonicating the polymers in sterile water (5 mgmL^−1). The polymer stock solutions were diluted to 0.005 mgmL^−1 with media. Etoposide stock solution (20 mgmL^−1) was prepared by diluting the drug in DMSO. The formulations were prepared by addition of drug into 0.005 mgmL^−1 polymer solution.

[4] = cited from earlier work
Caco-2 cells = test: MTT assay on Caco-2 cells; type: cell-based
Method: The cytotoxicity of the modified PAA polymers was determined using the MTT assay model. Caco-2 cells were cultured in minimum essential medium (MEM) containing 10% foetal bovine serum (FBS), 1% L-glutamine and 1% non essential amino acids (NEAA).
A 10 mgmL^−1 polymer solution was prepared using sterile water as the diluent. The solution was further diluted with media to form a 0.5 mgmL^−1 stock solution. From the stock solution nine dilutions (0.2-1×10^−4 mgmL^−1) were made using media as the diluent.
Caco-2 cells (200 μL, 10000 cells/well) in exponential growth phases were seeded into a 96-well flat bottomed plate and incubated for 24 h at 37° C. with 5% CO2. The media was replaced with increasing polymer concentrations (0.5-1×10^−4 mgmL^−1) as prepared above. Media and Triton X (1:5 PBS) were the negative and positive controls respectively. The plate was incubated as before. After 24 h the polymer solutions were removed and replaced with fresh media. […] The remaining purple formazan complexes were dissolved in DMSO (200 μL) and L-glycine buffer (25 mL, made up of 3.75 g glycine and 2.93 g NaCl made up in 500 mL and pH adjusted to pH 10.5) and the absorbance of the plates was read at 570 nm using a microplate reader (Ascend Lab-Systems, UK). Percentage cell viability was calculated relative to the positive and negative controls. […]

[5] = Drug loading capacity: solubilisation of prednisolone (HPLC); type: physicochemical
[6] = type: physicochemical; remark: listed apart in the source
Method: as §1
The BNIPDaoct content in self assemblies was carried out using reverse phase Zorbax ODS 250 mm×46 mm×5 […] HPLC column was used with flow rate of 1 mlmin^−1 of the mobile phase (55:45 buffer:acteonitrile) in an isocratic mode. The buffer was made up of 0.4 g octane sulfonic acid and anhydrous sodium acetate made up to 200 ml with deionised water, the solution was pH adjusted to pH4.5. The column eluent was monitored using a fluorescent Detector. The samples were diluted with mobile phase and 20 μl was injected onto the column, the resultant peak at 10 mins was analysed. A calibration was carried out by dissolving BNIPDaoct in DMSO:water (50:50 v/v) (39-625 μgmL^−1).

[7] = type: physicochemical; remark: listed apart in the source
Method: Polymer solutions of 1 […] 6 mgmL^-1 were made up in deionised water and probe sonicated for 10 mins to ensure homogeneity. […] The drug loading capacity of the self assemblies was determined using high performance liquid chromatography (HPLC). […] The samples were diluted with mobile phase and 20 μl was injected onto the column, the resultant peak at 7 mins was analysed.

Compound: 5-Dimethylamino-1-naphthalenesulfonyl-PAA [Dansyl10]
- Increase from aqueous solubility [1]: 557 Fold
- Concentration of Etoposide solubilised [2]: 1.890 (0.011) mgmL^−1

Compound: O=C1c2cccc3cccc(c23)C(=O)N1CCCNCCCCCCCCNCCCN1C(=O)c2cccc3cccc(c23)C1=O [BNIPDaoct, Bisnahthalimidopropyldiaminooctane]
- aqueous solubility (in words) [3]: negligible
- IC50 (n = 3 ± SD) (HEK 293 cells; HEK 293 cells, IC50 of the polymer was used in the formulations): 0.00496 (0.00005) mgmL^−1

Compound: COC1=CC(=O)C[C@@H](C)[C@]12Oc1c(Cl)c(OC)cc(OC)c1C2=O [Griseofulvin, (2S)-trans-7-chloro-2′,4,6-trimethoxy 6′-methylspiro(benzofuran-2[3H],1′-[2]cyclohexene)3,4′-dione]
- aqueous solubility ([4]; 25° C.): 30 µg/mL (≈ 85 µM)
- aqueous solubility ([4]; value used for fold increase): 0.03 mgmL^−1

Compound: COc1cc([C@@H]2c3cc4c(cc3[C@@H](O[C@@H]3O[C@@H]5CO[C@@H](C)O[C@H]5[C@H](O)[C@H]3O)[C@H]3COC(=O)[C@H]23)OCO4)cc(OC)c1O [Etoposide]
- IC50 (HEK 293 cells; HEK293, read-out: IC50 (n = 3 ± SD), HEK 293 cells, IC50 of the polymer was used in the formulations): 2.48 µg/mL (≈ 4.21 µM)
- IC50 (HEK 293 cells; HEK293, IC90 of the polymer used in the formulations (5 μgmL^−1), read-out: IC50 on HEK 293 cells): 2.5 µg/mL (≈ 4.25 µM)
- IC50 (Caco-2 cells; Homo sapiens, Caco-2, read-out: IC50 on Caco-2 cells): 190 µg/mL (≈ 323 µM)
- aqueous solubility ([4]; 37° C.): 148 to 153 µg/mL
- aqueous solubility ([4]; value used for fold increase): 0.15 mgmL^−1

Compound: Cholesterol-PAA [Ch5]
- maximum concentration of prednisolone solubilised [5]: 7.05 mgmL^−1
- Concentration of Griseofulvin solubilised [1]: 1.2 mgmL^−1
- Excipient:Drug Ratio after solubilisation [1]: 5.00
- Increase from aqueous solubility [1]: 40 Fold
- Concentration of BNIPDaoct solubilised [6]: 0.3 mgmL^−1
- Excipient:Drug Ratio after solubilisation [6]: 3.33
- Number of fold more cytotoxic compared to IC50 of PAA (Caco-2 cells): −1.61
- Concentration of Etoposide solubilised [2]: 1.020 (0.040) mgmL^−1
- Excipient:Drug Ratio after solubilisation [2]: 5.88
- Increase from aqueous solubility [2]: 7 Fold

Compound: CC(C)c1cccc(C(C)C)c1O [Propofol, 2,6-diisopropylphenol]
- aqueous solubility ([4]; 25° C.): 100 µg/mL (≈ 561 µM)
- aqueous solubility ([4]; value used for fold increase): 0.1 mgmL^−1

Compound: 5-Dimethylamino-1-naphthalenesulfonyl-PAA [Dansyl5]
- maximum concentration of propofol solubilised [7]: 22.4 mgmL^−1
